Here are results for 4 molecules from patent US20240102057A1, “METHODS AND COMPOSITIONS USEFUL FOR THE PRODUCTION OF 4-VINYLPHENOL” (THE REGENTS OF THE UNIVERSITY OF CALIFORNIA, priority 2022, published 2024).

One data set concerns E. coli. The settings on record: cited from earlier work; for toxicity of organic solvent to E. coli: literature reports [10, 16, 17, 25].
Another data set relates to PAD enzyme. The settings on record: literature reports [10, 16, 17, 25]; cited from earlier work.
The next data set has as its system Cg and Cg phdA- strains. Description: Growth (cell density) in tryptic soy broth supplemented with 4VP or CA. It counts as cell-based, Corynebacterium glutamicum. To be noted: 24 h, FIG. 1a, b. As to the method:
(§1) To test whether the PAD strains were able to convert CA to 4VP and evaluate their tolerance to different concentrations of substrate and product, growth experiments were performed in tryptic soy broth supplemented with 0.25 or 0.5 g/L of 4VP, or 1, 5 or 10 g/L of CA. This rich medium was used to provide all the organisms with glucose and amino acids for growth and cell maintenance and allow for continuous PAD protein production during the 4VP production process. The bacterial cell density was measured at the time of inoculation and after 24 h of incubation, and PAD expression was induced at the beginning of the cultivations.
(§2) Cultivations were performed in 48-well flat bottom clear plates (Corning, USA) when an organic overlay was not added, in 48-well FlowerPlates (m2p, Germany) when an overlay was added to rich medium, and in 14 mL round-bottom plastic tubes for lignin liquors with an overlay. Seed cultures of all strains listed in Table 1 were started by inoculating cells from agar plates into tubes with 5 mL of tryptic soy broth and incubating at 30° C. with vigorous shaking for 12 h. For the experiments in the clear plates, inocula were prepared by mixing 1 mL of the seed cultures with 9 mL of fresh tryptic soy broth and incubated for 8 h. […] The optical density at 595 nm was measured using a DTX880 plate reader (Beckton-Coulter, USA).

The next data set deals with all Bacillus species. Described as above. It counts as cell-based, Bacillus subtilis, Bacillus amyloliquefaciens. To be noted: 24 h, FIG. 1g-i. As to the method: as §1, §2
Data set [1] is described as follows: Distribution between aqueous phase and organic overlay in biphasic cultivations (HPLC). Format: physicochemical. The source says: One example is the extraction of 4VP from the aqueous phase with octanol in a continuous flow-bed reactor containing immobilized E. coli cells. […] Therefore, we compared the performance of octanol to other mid-chain fatty alcohols with slightly longer alkane chains, decanol and undecanol, when added as overlays to the cultivation media (20% of the aqueous phase volume). To obtain high product concentrations and identify any limitations to the amount of 4VP that can be extracted with the overlays, the four recombinant strains were incubated in the presence of 25 or 75 g/L of CA.
The lignocellulose-derived CA was used to cultivate the 4VP producing strains. […] However, this culture system is not amenable for repeated sampling of aqueous and organic phases to quantify metabolites or for monitoring cell growth in the presence of overlays and dark lignin liquors. Therefore, the incubations in CA-rich liquors were performed in culture tubes in presence of an undecanol overlay, and the OD, CA and 4VP concentrations were measured at 0, 12 and 24 h after inoculation. […]
CA and 4VP were quantified by HPLC in samples taken from the aqueous and organic phases of the cultivations or lignin liquors after diluting with water (aqueous samples) or pure acetonitrile (organic samples). […]

The test system of a further data set is all tested organisms. Briefly: Growth (cell density) in tryptic soy broth supplemented with 4VP or CA. Format: cell-based, E. coli, B. subtilis, C. glutamicum, B. amyloliquefaciens. To be noted: tryptic soy broth with 0.25 or 0.5 g/L 4VP, 24 h. The procedure: as §1, §2
The subject of another data set is E. coli (Ec). Described as above. It counts as cell-based, Escherichia coli. The settings on record: Ec and Ec PAD, 24 h, FIG. 1c, f. The procedure: as §1, §2
Another data set deals with microbes. To be noted: literature report [3]; cited from earlier work.

`CCCCCC` [hexane]: in the data set with E. coli, the “toxicity of organic solvent to E. coli” value is recorded as “significant toxicity”. Besides, the “effect of organic solvent on PAD enzyme activity” value in the data set with PAD enzyme is reported as “inhibition”.
Take `O=C(O)/C=C/c1ccc(O)cc1` [CA, p-coumaric acid]: the “CA concentration in the presence of which strains are able to grow (tolerance)” value with Cg and Cg phdA- strains is given as “up to 10 g/L”. Also, in the data set with all Bacillus species, the “CA concentration above which strains are unable to grow” value is given as “more than 1 g/L”. Also, the “share of CA not consumed found in the aqueous phase” value in data set [1] (octanol, decanol or undecanol overlay (20% of aqueous volume), tryptic soy broth with 25 or 75 g/L CA) is “more than 90%”.
Consider `C=Cc1ccc(O)cc1` [4VP, 4-vinylphenol], for which, in the data set on E. coli (literature report [12]), the “toxicity to E. coli relative to CA” value is “significantly more toxic to E. coli than CA”. In addition, the “toxicity of 4VP” value with all tested organisms is on record as “very toxic”. The “share of product extracted in the organic phase” value in data set [1] (undecanol overlay, lignin liquors from corn stover residue) came to 97%. Moreover, the “4VP concentration displaying growth inhibition” value with E. coli (Ec) amounted to 0.25 g/L.
Turning to `CCCCCCCCO` [octanol], the “toxicity of solvent to microbes” value with microbes is reported as “significant toxicity”. Moreover, the “toxicity of organic solvent to E. coli” value in the data set on E. coli is on record as “significant toxicity”. Further, in the data set on PAD enzyme, the “effect of organic solvent on PAD enzyme activity” value is recorded as “inhibition”.
